Experimental findings from patent publication US20130052280A1, “USE OF THEBROMINE FOR LOWERING CENTRAL BLOOD PRESSURE” (priority 2010, published 2013) are described below.

The structures appear in SMILES notation.

Series [1] relates to untreated prehypertensive males and females. As to the kind of experiment: Central blood pressure by applanation tonometry at the radial artery (pulse wave analysis), randomised controlled cross-over study. In kind it is in vivo, humans. The procedure: In a randomised controlled cross-over study with 42 untreated prehypertensive males and females the effect of cocoa-containing drinks either high in polyphenols or high in polyphenols and theobromine was assessed on blood pressure (BP). The subjects consumed for 3 weeks daily (in the morning before breakfast) 200 ml acidified dairy drink as in table 1, with added to that 1) none (control drink), 2) 3.65 g cocoa powder (Acticoa, Barry-Callebaut) containing 500 mg polyphenols and 79 mg theobromine (amount in product specification Acticoa) and 3) 5 g cocoa powder containing 500 mg polyphenols and 79 mg theobromine plus added thereto 918 mg pure theobromine (Fagron, Ph. […] Peripheral BP was measured by 24-hours ambulatory BP at the brachial artery, while central blood pressure was measured by applanation tonometry at the radial artery, using a transfer function to estimate central pulse wave forms, systolic and diastolic BP (SBP and DBP, respectively), pulse pressure (SBP-DBP) and augmentation index. […] Augmentation index (AIx), defined as the ratio of augmentation to central pulse pressure, is expressed as a percentage: AIx=(ΔP/PP)×100, where P is pressure and PP is pulse pressure. […] Pulse pressure amplification (PPA) is expressed as the ratio of […]: PPA=PPP/CPP. […]

Series [2] has the same test system. Description: 24-hour ambulatory blood pressure and heart rate (peripheral BP at the brachial artery), randomised controlled cross-over study. The class given is in vivo, humans. To be noted: for some time after ingestion. The procedure: In a randomised controlled cross-over study with 42 untreated prehypertensive males and females the effect of cocoa-containing drinks either high in polyphenols or high in polyphenols and theobromine was assessed on blood pressure (BP).
The subjects consumed for 3 weeks daily (in the morning before breakfast) 200 ml acidified dairy drink as in table 1, with added to that 1) none (control drink), 2) 3.65 g cocoa powder (Acticoa, Barry-Callebaut) containing 500 mg polyphenols and 79 mg theobromine (amount in product specification Acticoa) and 3) 5 g cocoa powder containing 500 mg polyphenols and 79 mg theobromine plus added thereto 918 mg pure theobromine (Fagron, Ph. […]
Peripheral BP was measured by 24-hours ambulatory BP at the brachial artery, while central blood pressure was measured by applanation tonometry at the radial artery, using a transfer function to estimate central pulse wave forms, systolic and diastolic BP (SBP and DBP, respectively), pulse pressure (SBP-DBP) and augmentation index. […]
An automatic ambulatory BP monitor (Spacelabs 90207, Spacelabs In., Redmond, Wash., USA) was placed on the non-dominant arm in all subjects. Systolic and diastolic BP and heart rate (HR) were recorded over at least 24 h. […]
Baseline data was expressed as mean plus standard deviation for variables with a parametric distribution and median plus range for variables with a skewed distribution. […]

For `Cn1cnc2c1c(=O)[nH]c(=O)n2C` [theobromine, 3,7-dimethylxanthine], in series [1] (ingestion in an effective amount), the “reduction of central blood pressure compared to when theobromine is not ingested” value was “at least 2 mmHg”. Further, the “reduction of central BP” value in series [1] (single daily dose of 1000 mg theobromine, p=0.003) is recorded as 3.3%. Further, in series [2], the “heart rate after ingestion of the effective amount (in words)” value is given as “elevated” and the “peripheral BP after ingestion of the effective amount (in words)” value is “elevated”.
